Measurements from patent publication US4224199A, “Somatostatin analogs having a substituted tryptophyl residue in position eight” (priority 1978, dated 1980).

Tested on: rat anterior pituitary cells
Assay: in vitro inhibition of growth hormone release from dispersed rat anterior pituitary cells (radioimmunoassay)
Type: cell-based
Settings: rat anterior pituitary cells 4 days in culture, incubated 5 hours at 37° C., potency from ED50 relative to somatostatin
Description: Meyers et al., Biochem. Biophys. Res. Commun., 74, 630(1977). In this method, the tetradecapeptides of this invention are shown to inhibit the release of radioimmunoassayable growth hormone in vitro from enzymatically dispersed rat anterior pituitary cells prepared as described by F. Labrie et al., Sixth Karolinska Symp. on Res. Meth. in Reprod. Endocrinol. (W. Dozfalusy, Ed.), pp 301-328(1973). Following four days in culture, the cells are washed and incubated for five hours at 37° C. in Dulbecco-modified Eagle's medium in the presence or absence of increasing concentrations of each tetradecapeptide analog. Growth hormone levels are determined by double antibody radioimmunoassay, method described by C. A. Birge et al., Endocrinol., 81, 195-204(1967), for rat growth hormone using the NIAMDD Rat GH RIA kit. The dose required for a 50% inhibition of growth hormone release (ED50) is calculated for each analog by the method of D. Rodbard, Endocrinol., 94, 1427-1437(1974). The potency of the tetradecapeptide analogs of this invention relative to somatostatin is illustrated in table I.

Compound | Growth Hormone Release-Inhibiting Activity, Relative to Somatostatin [%]
C[C@H](N)C(=O)NCC(=O)N[C@H]1CSSC[C@@H](C(=O)O)NC(=O)[C@H](CO)NC(=O)[C@H]([C@@H](C)O)NC(=O)[C@H](Cc2ccccc2)NC(=O)[C@H]([C@@H](C)O)NC(=O)[C@H](CCCCN)NC(=O)[C@@H](Cc2c[nH]c3ccc(F)cc23)NC(=O)[C@H](Cc2ccccc2)NC(=O)[C@H](Cc2ccccc2)NC(=O)[C@H](CC(N)=O)NC(=O)[C@H](CCCCN)NC1=O [Example D-5-F-Trp, cyclic[3-14 disulfide] of L-alanyl-glycyl-L-cysteinyl-L-lysyl-L-asparaginyl-L-phenylalanyl-L-phenylalanyl-D-5-fluorotryptophyl-L-lysyl-L-threonyl-L-phenylalanyl-L-threonyl-L-seryl-L-cysteine] | 2499
cyclic[3-14 disulfide] of L-alanyl-glycyl-L-cysteinyl-L-asparaginyl-L-lysyl-L-phenylalanyl-L-phenylalanyl-L-5-fluorotryptophyl-L-lysyl-L-threonyl-L-phenylalanyl-L-threonyl-L-seryl-L-cysteine [Example L-5-F-Trp] | 476
